Assays:
Format in all cases: biochemical
[1] = target: T1, recombinant human MAO-A (monoamine oxidase-A) (Homo sapiens, UniProt P21397); assay: Activity on recombinant human MAO-A, method similar to the VAP-1 assay; conditions: substrate 0.5 mM tyramine; read-out: Inhibitory Activity (IC50, nM) MAO-A
T1 construct: purchased Sigma-Aldrich
T1 sequence (P21397 1-527): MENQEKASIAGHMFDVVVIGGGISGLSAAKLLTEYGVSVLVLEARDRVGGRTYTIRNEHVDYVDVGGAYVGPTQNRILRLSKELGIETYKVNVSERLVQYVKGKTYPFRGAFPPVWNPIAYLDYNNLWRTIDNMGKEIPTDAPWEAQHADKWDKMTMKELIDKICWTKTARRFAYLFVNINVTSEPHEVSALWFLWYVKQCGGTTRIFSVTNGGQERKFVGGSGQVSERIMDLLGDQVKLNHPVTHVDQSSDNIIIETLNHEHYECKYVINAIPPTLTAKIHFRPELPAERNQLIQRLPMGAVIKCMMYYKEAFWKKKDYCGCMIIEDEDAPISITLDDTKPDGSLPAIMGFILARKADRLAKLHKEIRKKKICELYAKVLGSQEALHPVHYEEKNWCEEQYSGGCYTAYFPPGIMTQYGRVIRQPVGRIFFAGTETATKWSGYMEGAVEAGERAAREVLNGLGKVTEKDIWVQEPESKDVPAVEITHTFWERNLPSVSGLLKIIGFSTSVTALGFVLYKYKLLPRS
Method in brief: (§1)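 Enzyme preincubated with compound 30 min at 37 °C in 50 mM sodium phosphate pH 7.4, final DMSO below 1%. Substrate was 0.5 mM tyramine for MAO-A and 1 mM benzylamine for MAO-B, with 200 uM Amplex Red and 1 U/mL HRP. H2O2-coupled resorufin fluorescence (ex 544/em 590) followed over 1–2 h; 8-point 4-parameter IC50.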

[2] = target: T2, recombinant human DAO (diamine oxidase) (Homo sapiens, UniProt P19801); assay: Activity on recombinant human DAO, method similar to the VAP-1 assay; conditions: substrate 1 mM putrescine; read-out: Inhibitory Activity (IC50, nM) DAO
T2 construct: purchased R&D systems
T2 sequence (P19801 20-751): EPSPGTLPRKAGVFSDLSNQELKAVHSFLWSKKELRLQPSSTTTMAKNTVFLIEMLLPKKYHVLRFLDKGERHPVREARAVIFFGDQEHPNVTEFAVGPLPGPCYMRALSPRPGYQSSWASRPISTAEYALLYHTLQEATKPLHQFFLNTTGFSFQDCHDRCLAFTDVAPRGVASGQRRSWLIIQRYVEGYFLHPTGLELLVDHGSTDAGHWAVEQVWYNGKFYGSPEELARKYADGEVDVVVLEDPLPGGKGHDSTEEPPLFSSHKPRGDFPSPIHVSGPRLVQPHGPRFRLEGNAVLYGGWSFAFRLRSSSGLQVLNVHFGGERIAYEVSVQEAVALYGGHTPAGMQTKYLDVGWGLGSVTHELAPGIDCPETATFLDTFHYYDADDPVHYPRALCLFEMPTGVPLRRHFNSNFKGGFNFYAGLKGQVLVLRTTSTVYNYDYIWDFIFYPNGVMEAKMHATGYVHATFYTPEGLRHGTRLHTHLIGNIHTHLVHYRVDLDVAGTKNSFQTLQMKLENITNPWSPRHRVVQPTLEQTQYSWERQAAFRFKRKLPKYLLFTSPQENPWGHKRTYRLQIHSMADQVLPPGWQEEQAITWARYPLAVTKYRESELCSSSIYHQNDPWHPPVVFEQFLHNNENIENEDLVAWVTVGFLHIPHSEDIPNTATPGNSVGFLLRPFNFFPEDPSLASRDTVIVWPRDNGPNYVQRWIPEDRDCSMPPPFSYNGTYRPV
Method in brief: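 Inhibition of recombinant human diamine oxidase (DAO, R&D systems) was assessed by the same approach as the VAP-1 assay, using 1 mM putrescine as substrate. Hydrogen peroxide formed was detected through an HRP-coupled Amplex Red reaction yielding fluorescent resorufin, read at 544 nm excitation and 590 nm emission. IC50 values came from four-parameter logistic fitting in GraphPad Prism.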

recombinant human VAP-1 = target: T3, recombinant human VAP-1 (Homo sapiens, UniProt Q16853); assay: Activity on recombinant human VAP-1, HRP-coupled Amplex Red hydrogen peroxide assay; conditions: substrate 1 mM benzylamine; compound incubated with enzyme at 37° C. for 30 minutes; pH 7.4; read-out: Inhibitory Activity (IC50, nM) human VAP-1
T3 construct: purchased R&D systems
T3 sequence (Q16853 1-763): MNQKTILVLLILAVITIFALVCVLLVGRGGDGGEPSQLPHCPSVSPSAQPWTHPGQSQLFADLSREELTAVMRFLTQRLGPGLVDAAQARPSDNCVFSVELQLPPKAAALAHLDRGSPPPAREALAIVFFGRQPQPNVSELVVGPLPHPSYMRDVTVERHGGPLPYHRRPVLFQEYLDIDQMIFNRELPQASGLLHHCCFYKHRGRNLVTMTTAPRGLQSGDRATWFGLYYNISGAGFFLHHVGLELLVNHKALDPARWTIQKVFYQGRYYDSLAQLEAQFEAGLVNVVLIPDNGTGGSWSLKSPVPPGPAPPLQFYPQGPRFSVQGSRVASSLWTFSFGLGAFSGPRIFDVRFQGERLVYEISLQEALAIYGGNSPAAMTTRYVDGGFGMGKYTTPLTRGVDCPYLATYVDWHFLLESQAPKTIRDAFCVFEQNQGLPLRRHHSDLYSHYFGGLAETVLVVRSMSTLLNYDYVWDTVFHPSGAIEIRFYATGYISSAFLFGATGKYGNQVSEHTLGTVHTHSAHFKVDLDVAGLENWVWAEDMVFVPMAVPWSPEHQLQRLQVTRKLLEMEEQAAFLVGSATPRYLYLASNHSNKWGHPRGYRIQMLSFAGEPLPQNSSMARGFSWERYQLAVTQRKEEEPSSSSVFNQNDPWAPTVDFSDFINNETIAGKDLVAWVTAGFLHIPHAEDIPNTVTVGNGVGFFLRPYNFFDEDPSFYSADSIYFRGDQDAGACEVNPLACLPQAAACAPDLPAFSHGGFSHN
Method in brief: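 Enzyme in 50 mM sodium phosphate pH 7.4 preincubated with compound 30 min at 37 °C, then 1 mM benzylamine, 200 µM Amplex Red and 1 U/mL HRP added. H2O2-derived resorufin fluorescence (ex 544/em 590 nm) followed over 1–2 h; signal-rate decrease versus DMSO control, 8-point curve, four-parameter logistic IC50.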

[3] = target: T4, recombinant human MAO-B (monoamine oxidase-B) (Homo sapiens, UniProt P27338); assay: Activity on recombinant human MAO-B, method similar to the VAP-1 assay; conditions: substrate 1 mM benzylamine; read-out: Inhibitory Activity (IC50, nM) MAO-B
T4 construct: purchased Sigma-Aldrich
T4 sequence (P27338 1-520): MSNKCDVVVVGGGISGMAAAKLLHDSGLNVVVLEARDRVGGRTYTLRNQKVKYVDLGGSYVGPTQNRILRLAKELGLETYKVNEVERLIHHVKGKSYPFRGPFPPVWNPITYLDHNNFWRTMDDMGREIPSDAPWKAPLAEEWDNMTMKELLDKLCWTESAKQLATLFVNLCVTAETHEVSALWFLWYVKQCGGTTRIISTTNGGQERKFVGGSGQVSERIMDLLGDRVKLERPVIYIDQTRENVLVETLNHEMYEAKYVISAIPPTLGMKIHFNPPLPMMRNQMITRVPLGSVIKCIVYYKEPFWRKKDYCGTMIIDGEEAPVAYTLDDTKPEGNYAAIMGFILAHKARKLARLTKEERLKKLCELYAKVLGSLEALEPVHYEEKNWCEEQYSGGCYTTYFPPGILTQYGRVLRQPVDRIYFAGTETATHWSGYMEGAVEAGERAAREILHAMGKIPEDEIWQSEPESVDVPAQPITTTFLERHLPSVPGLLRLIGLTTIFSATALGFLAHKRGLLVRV
Method in brief: as §1

| Compound | IC50 [1] [nM] | IC50 [2] [nM] | IC50 (recombinant human VAP-1) [nM] | IC50 [3] [nM] |
| --- | --- | --- | --- | --- |
| NC/C(=C\F)Cn1ncn(Cc2ccc(-c3ccc4nsnc4c3)s2)c1=O [Example 192, 2-[(2E)-2-(aminomethyl)-3-fluoroprop-2-en-1-yl]-4-{[5-(2,1,3-benzothiadiazol-5-yl)thiophen-2-yl]methyl}-2,4-dihydro-3H-1,2,4-triazol-3-one] | > 100000 | 310 | 1 | 120 |
| NC/C(=C\F)Cn1ncn(Cc2ccc(-c3ccc4c(c3)COC4)s2)c1=O [Example 193, 2-[(2E)-2-(aminomethyl)-3-fluoroprop-2-en-1-yl]-4-{[5-(1,3-dihydro-2-benzofuran-5-yl)thiophen-2-yl]methyl}-2,4-dihydro-3H-1,2,4-triazol-3-one] | > 100000 | 2000 | 1 | 85 |
| CCn1cc(-c2ccc(Cn3cnn(C/C(=C/F)CN)c3=O)s2)ccc1=O [Example 194, 5-[5-({1-[(2E)-2-(aminomethyl)-3-fluoroprop-2-en-1-yl]-5-oxo-1,5-dihydro-4H-1,2,4-triazol-4-yl}methyl)thiophen-2-yl]-1-ethylpyridin-2(1H)-one] | > 100000 | 1200 | 1.6 | 1500 |
| NC/C(=C\F)Cn1ncn(Cc2ccc(-c3ccc(=O)n(C4CC4)c3)s2)c1=O [Example 195, 5-[5-({1-[(2E)-2-(aminomethyl)-3-fluoroprop-2-en-1-yl]-5-oxo-1,5-dihydro-4H-1,2,4-triazol-4-yl}methyl)thiophen-2-yl]-1-cyclopropylpyridin-2(1H)-one] | > 100000 | 710 | 1.6 | 2300 |
| CCS(=O)(=O)c1ccc(-c2ccc(Cn3cnn(C/C(=C/F)CN)c3=O)s2)cc1 [Example 196, 2-[(2E)-2-(aminomethyl)-3-fluoroprop-2-en-1-yl]-4-({5-[4-(ethylsulfonyl)phenyl]thiophen-2-yl}methyl)-2,4-dihydro-3H-1,2,4-triazol-3-one] | > 100000 | 230 | 2.3 | 4700 |
| NC/C(=C\F)Cn1ncn(Cc2ccc(-c3ccc(S(=O)(=O)NC4CC4)cc3)s2)c1=O [Example 197, 4-[5-({1-[(2E)-2-(aminomethyl)-3-fluoroprop-2-en-1-yl]-5-oxo-1,5-dihydro-4H-1,2,4-triazol-4-yl}methyl)thiophen-2-yl]-N-cyclopropylbenzenesulfonamide] | > 100000 | 340 | 2 | 2700 |
| NC/C(=C\F)Cn1ncn(Cc2ccc(-c3ccc(N4CCNCC4)nc3)s2)c1=O [Example 199, 2-[(2E)-2-(aminomethyl)-3-fluoroprop-2-en-1-yl]-4-({5-[6-(piperazin-1-yl)pyridin-3-yl]thiophen-2-yl}methyl)-2,4-dihydro-3H-1,2,4-triazol-3-one] | > 100000 | 1100 | 8.8 | > 100000 |
| CS(=O)(=O)c1ccc(-c2csc(Cn3cnn(C/C(=C/F)CN)c3=O)c2)cc1 [Example 201] | > 100000 | 450 | 1.5 | 3000 |
| NC/C(=C\F)Cn1ncn(Cc2cc3cc(-c4ccc5c(c4)OCO5)ccc3s2)c1=O [Example 207, 2-[(2E)-2-(aminomethyl)-3-fluoroprop-2-en-1-yl]-4-{[5-(1,3-benzodioxol-5-yl)-1-benzothiophen-2-yl]methyl}-2,4-dihydro-3H-1,2,4-triazol-3-one] | > 100000 | 2800 | 3.8 | 64 |
| CS(=O)(=O)c1ccc(-c2ccc3sc(Cn4cnn(C/C(=C/F)CN)c4=O)cc3c2)cc1 [Example 208, 2-[(2E)-2-(aminomethyl)-3-fluoroprop-2-en-1-yl]-4-({5-[4-(methylsulfonyl)phenyl]-1-benzothiophen-2-yl}methyl)-2,4-dihydro-3H-1,2,4-triazol-3-one] | > 100000 | 780 | 1.2 | 26000 |
| NC/C(=C\F)Cn1ncn(Cc2cc3cc(-c4ccc(C(F)(F)F)nc4)ccc3s2)c1=O [Example 209, 2-[(2E)-2-(aminomethyl)-3-fluoroprop-2-en-1-yl]-4-({5-[6-(trifluoromethyl)pyridin-3-yl]-1-benzothiophen-2-yl}methyl)-2,4-dihydro-3H-1,2,4-triazol-3-one] | > 100000 | 1500 | 2.3 | 990 |
| Cc1cc(-c2ccc3sc(Cn4cnn(C/C(=C/F)CN)c4=O)cc3c2)cc2c1NC(=O)CC2 [Example 210, 6-[2-({1-[(2E)-2-(aminomethyl)-3-fluoroprop-2-en-1-yl]-5-oxo-1,5-dihydro-4H-1,2,4-triazol-4-yl}methyl)-1-benzothiophen-5-yl]-8-methyl-3,4-dihydroquinolin-2(1H)-one] | > 100000 | 590 | 1.7 | 9200 |

— patent US11780830B2, “Triazolone derivatives or salts thereof and pharmaceutical compositions comprising the same” (YUHAN CORPORATION, priority 2018, dated 2023)
